58 compounds from patent US12509459B2, “Inhibitors of NLRP3 inflammasome” (BioAge Labs, Inc., priority 2024, dated 2025) can be followed below.

Each structure is given as a SMILES string.

Chain of NLRP3 (Q96P20 whole entry): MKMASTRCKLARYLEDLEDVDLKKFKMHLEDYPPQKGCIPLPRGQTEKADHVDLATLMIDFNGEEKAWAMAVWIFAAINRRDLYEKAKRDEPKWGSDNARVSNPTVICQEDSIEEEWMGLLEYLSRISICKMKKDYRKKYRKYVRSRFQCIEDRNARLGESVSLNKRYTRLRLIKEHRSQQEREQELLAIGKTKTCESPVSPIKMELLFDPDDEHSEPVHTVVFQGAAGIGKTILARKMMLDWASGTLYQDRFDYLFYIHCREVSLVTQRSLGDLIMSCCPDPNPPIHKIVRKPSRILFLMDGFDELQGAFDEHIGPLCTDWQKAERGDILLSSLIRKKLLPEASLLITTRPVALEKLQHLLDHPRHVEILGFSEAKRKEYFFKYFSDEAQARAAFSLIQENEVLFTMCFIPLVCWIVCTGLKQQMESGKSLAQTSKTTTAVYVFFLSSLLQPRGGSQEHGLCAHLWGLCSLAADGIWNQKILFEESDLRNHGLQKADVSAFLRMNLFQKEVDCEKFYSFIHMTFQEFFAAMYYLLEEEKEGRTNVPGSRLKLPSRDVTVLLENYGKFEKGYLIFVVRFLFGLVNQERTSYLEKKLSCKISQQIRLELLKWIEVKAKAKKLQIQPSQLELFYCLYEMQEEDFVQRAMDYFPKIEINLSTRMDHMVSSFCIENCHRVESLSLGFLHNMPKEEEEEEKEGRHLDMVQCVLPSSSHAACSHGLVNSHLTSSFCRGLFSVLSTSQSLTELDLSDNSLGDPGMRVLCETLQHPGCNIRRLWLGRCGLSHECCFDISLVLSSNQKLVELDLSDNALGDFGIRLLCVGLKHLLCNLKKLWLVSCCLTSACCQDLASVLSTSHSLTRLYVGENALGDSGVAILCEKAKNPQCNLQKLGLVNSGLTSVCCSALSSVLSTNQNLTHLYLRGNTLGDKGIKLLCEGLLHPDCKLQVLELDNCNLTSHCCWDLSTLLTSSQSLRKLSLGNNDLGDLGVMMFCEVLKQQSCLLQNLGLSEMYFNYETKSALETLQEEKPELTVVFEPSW

The target in this experiment is NLRP3 (Homo sapiens, UniProt Q96P20). Put plainly: THP-1 cell-based NLRP3 activation assay. On the set-up: endogenous in cells; host or cells: THP-1 cells (PMA-differentiated, LPS-primed, nigericin-stimulated). The note with it: PMA-differentiated THP-1 cells, LPS 100 ng/mL then 10 μM nigericin. The method, then:
THP-1 cells are cultured in complete media (CM) until they reach logarithmic growth and achieve a viability >90%. CM is composed of RPMI-1640 (+Glutamax)/10% fetal bovine serum/55 μM β-mercaptoethanol/pen/strep. Cells are spun down and resuspended to 1,000,000 cells/mL in CM containing either 20 nM or 500 nM PMA. 150,000 cells (150 μL) are then added to each well of a 96-well TC plate and incubated for either 24 hr or 3 hr, respectively, in a standard cell culture incubator (37° C.; 5% CO2). After this incubation, the plate is tilted and media carefully removed. 200 μL of CM containing 100 ng/mL LPS is then added to the wells and the cells incubated an additional 3 hrs. The media is again removed and replaced with Opti-Mem medium containing pre-determined dilutions of test compounds in replicate wells. After a 30 min incubation, 10 μM nigericin (final concentration) in Opti-Mem medium with the corresponding concentration of compound is added to the wells for an additional 1 hr. Positive control wells contain 10 μM nigericin in Opti-Mem in the absence of test compound, while negative control wells contain Opti-Mem only. […] Once supernatants are removed, the relative viability of adherent cells in the 96-well TC plate are determined using a CellTiter-Glo® luminescent cell viability assay (Promega).
For `CCOc1cc(C(=O)N(CCN2CCC(F)CC2)Cc2cncc3cn[nH]c23)ccc1-c1cccc(F)c1` [Compound 110], the IC50 (commonly the concentration needed to halve the response being measured) was less than 0.1 µM. The result for `CCOc1cc(C(=O)N(CCN2C[C@@H](F)C[C@H](F)C2)Cc2cncc3cn[nH]c23)ccc1-c1cccc(F)c1` [Compound 111] reads less than 0.1 µM. In turn, `CCOc1cc(C(=O)N(CCN2CCCCC2)Cc2cncc3cn[nH]c23)ccc1-c1ccccc1` [Compound 112] came in with an IC50 of less than 0.1 µM. The result for `CCOc1cc(C(=O)N(CCN2CCCC(F)(F)C2)Cc2cncc3cn[nH]c23)ccc1-c1cccc(F)c1` [Compound 113] reads less than 0.1 µM; that for `CCOc1cc(C(=O)N(CCN2CCCC(F)C2)Cc2cncc3cn[nH]c23)ccc1-c1cccc(F)c1` (stereo not shown) [Compound 114], less than 0.1 µM. The result for `CCOc1cc(C(=O)N(CCN2CCC(F)(F)C2)Cc2cncc3cn[nH]c23)ccc1-c1cccc(F)c1` [Compound 115] reads less than 0.1 µM; that for `CCOc1cc(C(=O)N(CCNC)Cc2cncc3cn[nH]c23)ccc1-c1cccc(F)c1` [Compound 116], less than 0.1 µM. For `CCOc1cc(C(=O)N(CCN2CCCCC2)Cc2cncc3cn[nH]c23)ccc1-c1cccc(F)c1` [Compound 117] the value was less than 0.1 µM. Regarding `CCOc1cc(CN(CCN2CCOCC2)Cc2cncc3cn[nH]c23)ccc1-c1cccc(F)c1` [Compound 118], the IC50 fell in the range of 0.1 to 0.5 µM. The result for `CCOc1cc(C(=O)N(CCN2CCCC2)Cc2cncc3cn[nH]c23)ccc1-c1cccc(F)c1` [Compound 119] reads less than 0.1 µM. For the compound `CCOc1cc(CN(CCN(CC)CC)Cc2cncc3cn[nH]c23)ccc1-c1cccc(F)c1` [Compound 120], the 50% inhibitory concentration (IC50) was less than 0.1 µM. The result for `CCOc1cc(C(=O)N(C)[C@H](CN(C)C)c2cncc3cn[nH]c23)ccc1-c1cccc(F)c1` [Compound 121] reads less than 0.1 µM; that for `CCOc1cc(C(=O)N(C)[C@@H](CN(C)C)c2cncc3cn[nH]c23)ccc1-c1cccc(F)c1` [Compound 122], 0.5 to 1 µM; that for `CCOc1cc(C(=O)N(C)[C@H](CN2CCC2)c2cncc3cn[nH]c23)ccc1-c1cccc(F)c1` [Compound 123], 0.5 to 1 µM.

Compound `CCOc1cc(C(=O)N(C)[C@H](CN(C)C)c2cncc3cn[nH]c23)ccc1-c1cccc(Cl)c1` [Compound 125] displayed an IC50 of less than 0.1 µM. Turning to `CCOc1cc(C(=O)N(C)[C@@H](CN(C)C)c2cncc3cn[nH]c23)ccc1-c1cccc(Cl)c1` [Compound 126], the IC50 was less than 0.1 µM. For `CCOc1cc(C(=O)N(C)[C@H](CN(CC)CC)c2cncc3cn[nH]c23)ccc1-c1cccc(F)c1` [Compound 127] the value was less than 0.1 µM; for `CCOc1cc(C(=O)N(C)[C@@H](CN(CC)CC)c2cncc3cn[nH]c23)ccc1-c1cccc(F)c1` [Compound 128], less than 0.1 µM.

In the case of `CCOc1cc(C(=O)N(C)[C@H](CN2CCCC2)c2cncc3cn[nH]c23)ccc1-c1cccc(F)c1` [Compound 129], the half-maximal inhibitory concentration (IC50) was in the range of 0.5 to 1 µM. Turning to `CCOc1cc(C(=O)N(C)[C@@H](CN2CCCC2)c2cncc3cn[nH]c23)ccc1-c1cccc(F)c1` [Compound 130], the concentration for half-maximal inhibition (IC50) was less than 0.1 µM. `CCOc1cc(C(=O)N(C)[C@H](c2cncc3cn[nH]c23)C2CN(CC)C2)ccc1-c1cccc(Cl)c1` [Compound 131] displayed an IC50 of less than 0.1 µM. For `CCOc1cc(C(=O)N(C)[C@H](c2cncc3cn[nH]c23)C2CN(C(C)C)C2)ccc1-c1ccccc1` [Compound 132] the value was 1 to 15 µM; for `CCOc1cc(C(=O)N(C)[C@H](c2cncc3cn[nH]c23)C2CN(C)C2)ccc1-c1ccccc1` [Compound 133], less than 0.1 µM; for `CCOc1cc(C(=O)N(C)[C@H](c2cncc3cn[nH]c23)C2CN(CC)C2)ccc1-c1ccccc1` [Compound 134], 1 to 15 µM. The result for `CCOc1cc(C(=O)N(C)C(CCN(C)C)c2cccc3cn[nH]c23)ccc1-c1ccccc1` (stereo not shown) [Compound 135] reads less than 0.1 µM; that for `CCOc1cc(C(=O)N(C)[C@H](CCNCCF)c2cncc3cn[nH]c23)ccc1-c1ccccc1` [Compound 136], less than 0.1 µM; that for `CCOc1cc(C(=O)N(C)[C@H](CCN(C)CCCF)c2cncc3cn[nH]c23)ccc1-c1cccc(F)c1` [Compound 137], less than 0.1 µM.

In the case of `CCOc1cc(C(=O)N(C)[C@H](CCN(C)CCCF)c2cncc3cn[nH]c23)ccc1-c1ccccc1` [Compound 138], the IC50 was less than 0.1 µM.

Turning to `CCOc1cc(C(=O)N(C)[C@H](CCNCCCF)c2cncc3cn[nH]c23)ccc1-c1cccc(Cl)c1` [Compound 139], the IC50 was less than 0.1 µM. The result for `CCOc1cc(C(=O)N(C)[C@H](CCN)c2cncc3cn[nH]c23)ccc1-c1ccccc1` [Compound 140] reads less than 0.1 µM; that for `CCOc1cc(C(=O)N(C)[C@@H](c2cncc3cn[nH]c23)C2CNC2)ccc1-c1cccc(C#N)c1` [Compound 141], less than 0.1 µM; that for `CCOc1cc(C(=O)N(C)[C@H](c2cncc3cn[nH]c23)C2CNC2)ccc1-c1cccc(C#N)c1` [Compound 142], 1 to 15 µM.

With `CCOc1cc(C(=O)N(C)[C@@H](c2cncc3cn[nH]c23)C2CN(C)C2)ccc1-c1cccc(C#N)c1` [Compound 143], the IC50 was less than 0.1 µM. For `CCOc1cc(C(=O)N(C)[C@H](c2cncc3cn[nH]c23)C2CN(C)C2)ccc1-c1cccc(C#N)c1` [Compound 144] the value was less than 0.1 µM; for `CCOc1cc(C(=O)N(C)[C@H](CC[N+](C)(C)[O-])c2cncc3cn[nH]c23)ccc1-c1cccc(F)c1` [Compound 145], 1 to 15 µM; for `CCOc1cc(C(=O)N(C)[C@H](CCN(C)C)c2cncc3cn[nH]c23)ccc1C1CC1` [Compound 146], 0.1 to 0.5 µM. For `CCOc1cc(C(=O)N(C)[C@H](CCNC(=O)CC)c2cncc3cn[nH]c23)ccc1-c1cccc(F)c1` [Compound 147] the value was less than 0.1 µM; for `CCOc1cc(C(=O)N(C)[C@H](c2cncc3cn[nH]c23)C2CN(C)C2)ccc1-c1cccc(Cl)c1` [Compound 148], less than 0.1 µM. Compound `CN(C)CC[C@H](c1cncc2cn[nH]c12)N(C)C(=O)c1ccc(-c2cccc(C#N)c2)c(OC2CC2)c1` [Compound 149] gave an IC50 of less than 0.1 µM. In turn, `CCOc1cc(C(=O)N(C)[C@@H](c2cncc3cn[nH]c23)C2CNC2)ccc1-c1ccccc1` [Compound 150] registered an IC50 of 1 to 15 µM. The compound `CCOc1cc(C(=O)N(C)[C@H](c2cncc3cn[nH]c23)C2CNC2)ccc1-c1ccccc1` [Compound 151] displayed an IC50 of less than 0.1 µM. For `CCOc1cc(C(=O)N(C)[C@@H](c2cncc3cn[nH]c23)[C@H]2CCNC2)ccc1-c1ccccc1` [Compound 152] the value was 0.5 to 1 µM. For `CCOc1cc(C(=O)N(C)[C@@H](c2cncc3cn[nH]c23)[C@H]2CCN(C)C2)ccc1-c1ccccc1` [Compound 153] the value was less than 0.1 µM; for `CCOc1cc(C(=O)N(C)[C@H](c2cncc3cn[nH]c23)[C@@H]2CCNC2)ccc1-c1ccccc1` [Compound 154], less than 0.1 µM. The result for `CCOc1cc(C(=O)N(C)[C@H](CCN(C)CCF)c2cncc3cn[nH]c23)ccc1-c1ccccc1` [Compound 155] reads less than 0.1 µM; that for `CCOc1cc(C(=O)N(C)[C@H](CCN(C)C)c2cncc3cn[nH]c23)ccc1C1CCC1` [Compound 156], less than 0.1 µM. For the compound `CCOc1cc(C(=O)N(C)[C@H](CCN(C)C)c2cncc3cn[nH]c23)ccc1C1CCCC1` [Compound 157], the IC50 is less than 0.1 µM. In the case of `CCOc1cc(C(=O)N(C)[C@H](CCN(C)C)c2cncc3cn[nH]c23)ccc1C(C)C` [Compound 158], the IC50 lay in the range of 1 to 15 µM. For `CCOc1cc(C(=O)N(C)[C@@H](c2cncc3cn[nH]c23)[C@@H]2CCNC2)ccc1-c1ccccc1` [Compound 159] the value was less than 0.1 µM; for `CCOc1cc(C(=O)N(C)[C@@H](c2cncc3cn[nH]c23)[C@@H]2CCN(C)C2)ccc1-c1ccccc1` [Compound 160], less than 0.1 µM. Take `CCOc1cc(C(=O)N(C)[C@H](CCN(C)C)c2cncc3cn[nH]c23)ccc1C(C)CC` (stereo partly shown) [Compound 161]: the 50% inhibitory concentration (IC50) was less than 0.1 µM. `CCOc1cc(C(=O)N(C)[C@@H](CCN(C)C)c2cncc3cn[nH]c23)ccc1-c1cccc(F)c1` [Compound 162] gave an IC50 of less than 0.1 µM. In the case of `CCOc1cc(C(=O)N(C)[C@H](CC[N+](C)(C)[O-])c2cncc3cn[nH]c23)ccc1-c1cccc(Cl)c1` [Compound 163], the IC50 is less than 0.1 µM. For the compound `CCOc1cc(C(=O)N(C)[C@H](CC[N+](C)(C)[O-])c2cncc3cn[nH]c23)ccc1-c1cccc(C)c1` [Compound 164], the IC50 was less than 0.1 µM. `CN(C(=O)c1ccc(-c2cccc(F)c2)c(OC2CC2)c1)[C@H](CC[N+](C)(C)[O-])c1cncc2cn[nH]c12` [Compound 165] gave an IC50 of less than 0.1 µM. For `CCOc1cc(C(=O)N(C)[C@H](CC[N+](C)(C)[O-])c2cncc3cn[nH]c23)ccc1-c1ccccc1` [Compound 166] the value was less than 0.1 µM; for `CCNCC[C@H](c1cncc2cn[nH]c12)N(C)C(=O)c1ccc(-c2cccc(F)c2)c(OCC)c1` [Compound 167], less than 0.1 µM.

For the compound `CCOc1cc(C(=O)N(C)[C@@H](c2cncc3cn[nH]c23)C2CNC2)ccc1-c1cccc(C)c1` [Compound 168], the IC50 is less than 0.1 µM.
